Like-named read-outs stand apart in the source and are kept apart here.
How the values were obtained:
[1] = tested on: N. fowleri ATCC 30808 trophozoites; test: In vitro activity against trophozoite stage (alamarBlue), strain ATCC 30808; assay type: cell-based, Naegleria fowleri; details: for S.I. ATCC 30808 (selectivity index CC50/IC50): CC50 murine macrophages / IC50 N. fowleri ATCC 30808; for IC50 / IC90: Naegleria fowleri, ATCC30808, trophozoites, alamarBlue, 48 h incubation
[2] = In vitro cytotoxicity against murine macrophages (alamarBlue); assay type: cell-based; details: mouse
Protocol: (§1) For cytotoxicity assays, a murine cell line macrophage J774A.1 (ATCC TIB-67) was used, maintained in the Dulbecco’s modified Eagle’s medium (DMEM, w/v) supplemented with 10% (v/v) FBS and 10 μg/mL gentamicin (Sigma-Aldrich, Madrid, Spain), incubated at 37 °C in a 5% CO2 atmosphere.
(§2) In this assay, a murine macrophage cell line J774A.1 (ATCC TIB-67) was used. Serial dilutions of the compounds were added and, subsequently, the alamarBlue reagent as described in previous studies[51] was also placed. Once the plates were read on the EnSpire Multimode Plate Reader (PerkinElmer, Madrid, Spain), the data were analyzed to obtain the cytotoxic concentration 50 (CC50). This CC50, together with the activity, was used to obtain the selectivity index for N. fowleri.

[3] = tested on: N. fowleri ATCC 30215 trophozoites; test: In vitro activity against trophozoite stage (alamarBlue), strain ATCC 30215; assay type: cell-based; details: Naegleria fowleri, ATCC30215, 48 h incubation
[4] = tested on: murine macrophage cell line J774A.1 (ATCC TIB-67); test: In vitro cytotoxicity against murine macrophages (alamarBlue); assay type: cell-based; details: mouse
Protocol: as §1, §2

[5] = tested on: N. fowleri ATCC 30808 trophozoites; assay type: cell-based, Naegleria fowleri; details: not told
Protocol: (§3) To evaluate the mechanisms of action of the compounds at the cellular level, a series of commercial kits were used according to the manufacturer’s instructions. To carry out the assays, the N. fowleri ATCC 30808 culture was previously incubated with the IC90 of the compounds evaluated for 24 h. Nontreated N. fowleri trophozoites were used as a negative control. […] Five images were processed each time at 40x and 100x objective lenses.
The permeability of the plasma membrane can be analyzed using a green fluorescent dye called SYTOX Green (Life Technologies, Madrid, Spain). After the amoebae are incubated for 24 h with the IC90 of cyanomethyl vinyl ethers, SYTOX Green was added to a final concentration of 1 μM and after 15 min of incubation, cells were observed using Discover Echo Inc. Revolution Microscope (Discover Echo, San Diego, CA). The plasma membrane of the damaged cells will become permeable, giving the reagent the ability to enter through it. When inside the cell, it binds to the DNA and increases its fluorescence more than 500-fold, emitting green fluorescence at 523 nm.

[6] = tested on: N. fowleri ATCC 30808 trophozoites; test: Chromatin condensation assay (Hoechst 33342/PI double stain); assay type: cell-based, Naegleria fowleri; details: 24 h incubation with IC90
Protocol: as §3
A double-stain apoptosis detection kit (Hoechst 33342/PI) (Life Technologies, Madrid, Spain) was used to evaluate DNA condensation based on the fluorescent detection for chromatin compaction in apoptotic cells, and the assay offers a rapid and convenient apoptosis detection. As soon as the amoebae have been incubated for 24 h with the active compound’s IC90, Hoechst and propidium iodide (PI) are added at a final concentration of 5 and 1 μg/mL, respectively. Fluorescence should be observed after 15 min of incubation in the dark. In apoptotic cells, Hoechst 33342, a dye for blue fluorescence, stains the condensed chromatin more intensely than that in normal cells. PI emits red fluorescence (maximum excitation and emission wavelengths when bound to DNA of 535 and 617 nm, respectively), which can only be emitted through dead cells.

[7] = tested on: N. fowleri ATCC 30808 trophozoites; test: ATP levels (CellTiter-Glo Luminescent Cell Viability Assay); assay type: cell-based, Naegleria fowleri; details: 24 h incubation with IC90
Protocol: To evaluate the mechanisms of action of the compounds at the cellular level, a series of commercial kits were used according to the manufacturer's instructions. To carry out the assays, the N. fowleri ATCC 30808 culture was previously incubated with the IC90 of the compounds evaluated for 24 h. Nontreated N. fowleri trophozoites were used as a negative control. […] Five images were processed each time at 40x and 100x objective lenses. In order to measure the amount of ATP produced, Cell […]-GLO Luminescent Cell Viability assay (Promega Biotech Ibérica, Madrid, Spain) was used. With this kit, it is possible to compare the ATP production of treated cells to that of nontreated (negative control). ATP levels were evaluated by luminescent analysis using an EnSpire Multimode Plate Reader (Perkin Elmer, Madrid, Spain) following incubation with IC90 of selected compounds at 37 °C for 24 h.

[8] = tested on: N. fowleri ATCC 30808 cysts; test: In vitro activity against cyst stage (alamarBlue); assay type: cell-based; details: Naegleria fowleri, ATCC30808, read 24 h after adding reagent, read-out: Cysticidal activity, N. fowleri ATCC 30808 IC50
[9] = tested on: N. fowleri ATCC 30808 trophozoites; test: Mitochondrial membrane potential disruption (JC-1); assay type: cell-based, Naegleria fowleri; details: 24 h incubation with IC90
Protocol: as §3
To determine the potential of the mitochondrial membrane was use the dye JC-1 (1,1′,3,3′-tetraethyl-5,5′,6,6′-tetrachloroimidacarbocyanine iodide) (Cayman Chemicals Vitro SA, Madrid, España). Once the amoebae were incubated for 24 h with the IC90 of the active compounds, 10 μL of JC-1 was added. […] The reagent fluoresces at two different wavelengths depending on the membrane potential. Under normal conditions, the monomers bind together to form J-aggregates (dimers) emitting red fluorescence at 595 nm.

[10] = tested on: N. fowleri ATCC 30808 trophozoites; test: Oxidative stress / ROS detection (CellROX Deep Red); assay type: cell-based, Naegleria fowleri; details: 24 h incubation with IC90
Protocol: To evaluate the mechanisms of action of the compounds at the cellular level, a series of commercial kits were used according to the manufacturer’s instructions. To carry out the assays, the N. fowleri ATCC 30808 culture was previously incubated with the IC90 of the compounds evaluated for 24 h. Nontreated N. fowleri trophozoites were used as a negative control. […] Five images were processed each time at 40x and 100x objective lenses. In this assay, the oxidative stress produced in the pathogen by the generation of oxygen free radicals is evaluated. The CellROX Deep Red kit (Invitrogen, Thermo Fisher Scientific, Madrid, Spain) was used in amoebae incubated for 24 h with the IC90 of the compounds to be tested. The reagent was used at a final concentration of 5 μM and incubated for 30 min. After this time, the action of the reagent was observed using the Discover Echo Inc. Revolution Microscope (Discover Echo, San Diego, CA). As a result of the overproduction of reactive oxygen species (ROS), this dye has the ability to penetrate the cells and emit red fluorescence at a wavelength of ∼644/665 nm.

[11] = tested on: N. fowleri ATCC 30808 trophozoites; test: Actin filament depolymerization (phalloidin-TRITC); assay type: cell-based, Naegleria fowleri; details: 24 h incubation with IC90, Z-stack imaging
Protocol: To evaluate the mechanisms of action of the compounds at the cellular level, a series of commercial kits were used according to the manufacturer’s instructions. To carry out the assays, the N. fowleri ATCC 30808 culture was previously incubated with the IC90 of the compounds evaluated for 24 h. Nontreated N. fowleri trophozoites were used as a negative control. […] Five images were processed each time at 40x and 100x objective lenses. The disassembly of cytoskeleton in treated amoebae can be analyzed by the red fluorescence emitted by phalloidin-TRITC when it binds to actin filaments. On the other hand, DAPI reagent was used which, in turn, binds to DNA and emits blue fluorescence, as already described in Acanthamoeba genus.[52] In this assay, amoebae were incubated with the IC90 of compounds. A 24-h incubation period was followed by the fixation of the cells with formaldehyde on a coverslip and the addition of 0.1% Triton before the addition of phalloidin-tetramethylrhodamine B isothiocyanate (phalloidin-TRITC; Sigma-Aldrich, Madrid, Spain) for another 30-min period. Finally, after incubation, the sample was washed with PBS. Cells were examined by Z-stack with a 100x objective of the EVOS FL Cell Imaging System AMF4300 (Life Technologies, Madrid, Spain).

[12] = Murine macrophages J774.A1 CC50
[13] = J774A.1 macrophage cell line (ATCC TIB-67), alamarBlue, read-out: Murine macrophages J774.A1 CC50

In the case of `COC(=O)/C=C/OC(C#N)c1cc(OC)c(OC)c(OC)c1` (centres unmarked) [QOET-67], the “S.I. ATCC 30808 (selectivity index CC50/IC50)” value [1] is reported as over 6, the IC50 [1] is reported as 48.3 ± 10.5 µM and the IC90 [1] is reported as 154 ± 15.3 µM. For the same molecule, the CC50 [2, 12] was over 325 µM and the IC50 [3] was 121 ± 20.7 µM.

With `CCCCCCCCCCCCCCCCOP(=O)([O-])OCC[N+](C)(C)C` [Miltefosine, miltefosine, reference compound] the “S.I. ATCC 30808 (selectivity index CC50/IC50)” value [1] was 3.30, the IC50 [1] was 38.7 ± 4.23 µM and the IC90 [1] was 89.5 ± 17.4 µM. The CC50 [2, 13] was 128 ± 8.85 µM and the IC50 [3] was 81.6 ± 7.23 µM.

In the case of `COC(=O)/C=C/OC(C#N)c1ccc(C)cc1` (centres unmarked) [QOET-59], the “S.I. ATCC 30808 (selectivity index CC50/IC50)” value [1] is reported as over 20, the IC50 [1] is reported as 42.3 ± 6.44 µM and the IC90 [1] is reported as 77.2 ± 11.8 µM. For the same molecule, the CC50 [4] was over 865 µM, the CC50 [2, 12] was over 800 µM and the “Plasma membrane permeability (SYTOX Green fluorescence)” value (“Plasma membrane permeability” for short) [5] was “show green fluorescence”. For the same molecule, the “Chromatin condensation (Hoechst 33342 blue fluorescence)” value (shortened to “Chromatin condensation”) [6] was “condensation was observed”, the “Decrease in ATP levels compared to the negative control” value (“Decrease in ATP levels” below) [7] was 98.49% and the IC50 [8] was 93.6 ± 17.5 µM. The IC50 [3] was 44.5 ± 0.48 µM, the “Mitochondrial membrane potential (JC-1 fluorescence)” value (“Mitochondrial membrane potential” below) [9] was “disruption in the mitochondrial membrane potential” and the “Intracellular ROS generation (CellROX Deep Red fluorescence)” value (“Intracellular ROS generation” below) [10] was “increase of the intracellular ROS generation”. The “Actin filaments (phalloidin-TRITC fluorescence)” value (“Actin filaments” below) [11] was “bright red fluorescence region related to actin depolymerization”.

In the case of `COC(=O)/C=C\OC(C#N)c1ccc(C)c(C)c1` (centres unmarked) [QOET-72], the “S.I. ATCC 30808 (selectivity index CC50/IC50)” value [1] is reported as over 7, the IC50 [1] is reported as 47.7 ± 4.1 µM and the IC90 [1] is reported as 185 ± 7.05 µM. For the same molecule, the CC50 [2, 12] was over 408 µM, the “Plasma membrane permeability” value [5] was “show green fluorescence” and the “Chromatin condensation” value [6] was “condensation was observed”. For the same molecule, the “Decrease in ATP levels” value [7] was 90.25%, the IC50 [8] was 130 ± 22.8 µM and the IC50 [3] was 50.1 ± 4.9 µM. The “Mitochondrial membrane potential” value [9] was “disruption in the mitochondrial membrane potential”, the “Intracellular ROS generation” value [10] was “increase of the intracellular ROS generation” and the “Actin filaments” value [11] was “bright red fluorescence region related to actin depolymerization”.

With `C[C@@H]1[C@H](O)[C@@H](C)/C=C/C=C/C=C/C=C/C=C/C=C/C=C/[C@H](O[C@@H]2O[C@H](C)[C@@H](O)[C@H](N)[C@@H]2O)C[C@@H]2O[C@](O)(C[C@@H](O)C[C@@H](O)[C@H](O)CC[C@@H](O)C[C@@H](O)CC(=O)O[C@H]1C)C[C@H](O)[C@H]2C(=O)O` [Amphotericin B, reference compound] the “S.I. ATCC 30808 (selectivity index CC50/IC50)” value [1] was at least 1652.89, the IC50 [1] was 0.12 ± 0.03 µM and the IC90 [1] was 0.35 ± 0.02 µM. The CC50 [2, 13] was at least 200 µM and the IC50 [3] was 0.16 ± 0.02 µM.

For `COC(=O)/C=C\OC(C#N)c1ccc(C(F)(F)F)cc1` (centres unmarked) [QOET-64], the “S.I. ATCC 30808 (selectivity index CC50/IC50)” value [1] was over 9, the IC50 [1] was 38.8 ± 2.13 µM and the IC90 [1] was 83.4 ± 9.47 µM. The CC50 [2, 12] was over 351 µM and the IC50 [3] was 48.9 ± 0.81 µM.

For `COC(=O)/C=C/OC(C#N)c1ccc(F)cc1` (centres unmarked) [QOET-79], the “S.I. ATCC 30808 (selectivity index CC50/IC50)” value [1] was over 10, the IC50 [1] was 43.3 ± 5.69 µM and the IC90 [1] was 119 ± 26 µM. It also gave a CC50 [2, 12] of over 425 µM and an IC50 [3] of 54.3 ± 7.4 µM.

In the case of `COC(=O)/C=C/OC(C#N)c1ccccc1` (centres unmarked) [QOET-51], the “S.I. ATCC 30808 (selectivity index CC50/IC50)” value [1] is reported as 14.23, the IC50 [1] is reported as 49.9 ± 3.04 µM and the IC90 [1] is reported as 173 ± 17.2 µM. It also gave a CC50 [2, 12] of 709 ± 67.1 µM and an IC50 [3] of 68.5 ± 2.16 µM.

For `COC(=O)/C=C/OC(C#N)c1ccccc1C` (centres unmarked) [QOET-77], the “S.I. ATCC 30808 (selectivity index CC50/IC50)” value [1] was over 10, the IC50 [1] was 39.2 ± 6.3 µM and the IC90 [1] was 117 ± 26.1 µM. The CC50 [2, 12] was over 394 µM, the “Plasma membrane permeability” value [5] was “show green fluorescence” and the “Chromatin condensation” value [6] was “condensation was observed”. The “Propidium iodide red fluorescence” value [6] was “late apoptosis phase”, the “Decrease in ATP levels” value [7] was 86.28% and the IC50 [8] was 102 ± 7.01 µM. For the same molecule, the IC50 [3] was 42.7 ± 8.5 µM, the “Mitochondrial membrane potential” value [9] was “disruption in the mitochondrial membrane potential” and the “Intracellular ROS generation” value [10] was “increase of the intracellular ROS generation”. For the same molecule, the “Actin filaments” value [11] was “only low red fluorescence was detected”.

Source: PMC10251482, “Cyanomethyl Vinyl Ethers Against Naegleria fowleri” (ACS Chemical Neuroscience, 2023)
